± gives the expanded uncertainty stated by the source.
Assay: molar heat capacity at constant pressure
Settings: Flow calorimetry

CC(C)C [2-methylpropane]
Settings | molar heat capacity at constant pressure [J/K/mol]
353.87 K, 10990 kPa, Liquid | 150.71 ± 3
353.87 K, 11500 kPa, Liquid | 150.42 ± 3
353.88 K, 2000 kPa, Liquid | 166.17 ± 3.3
353.88 K, 3510 kPa, Liquid | 160.94 ± 3.3
353.88 K, 7510 kPa, Liquid | 153.15 ± 3.1
353.88 K, 12010 kPa, Liquid | 149.9 ± 3
353.89 K, 5510 kPa, Liquid | 157.05 ± 3.1
353.89 K, 6510 kPa, Liquid | 155.42 ± 3.1
353.9 K, 1540 kPa, Liquid | 168.38 ± 3.4
353.9 K, 4000 kPa, Liquid | 160.01 ± 3.2
353.9 K, 7990 kPa, Liquid | 152.75 ± 3.1
363.86 K, 2090 kPa, Liquid | 174.19 ± 3.5
363.91 K, 2520 kPa, Liquid | 171.93 ± 3.4
363.92 K, 5030 kPa, Liquid | 162.8 ± 3.3
363.92 K, 6510 kPa, Liquid | 159.43 ± 3.2
363.92 K, 8020 kPa, Liquid | 156.81 ± 3.1
363.93 K, 3000 kPa, Liquid | 170.01 ± 3.4
363.93 K, 7000 kPa, Liquid | 158.5 ± 3.2
363.94 K, 5510 kPa, Liquid | 161.75 ± 3.3
363.94 K, 8500 kPa, Liquid | 156.12 ± 3.1
363.95 K, 11990 kPa, Liquid | 152.05 ± 3
363.96 K, 4040 kPa, Liquid | 165.71 ± 3.3
363.96 K, 6000 kPa, Liquid | 160.88 ± 3.3
363.96 K, 7510 kPa, Liquid | 157.92 ± 3.1
363.96 K, 9970 kPa, Liquid | 153.91 ± 3.1
363.96 K, 10510 kPa, Liquid | 153.09 ± 3.1
363.97 K, 3510 kPa, Liquid | 167.22 ± 3.4
363.97 K, 8990 kPa, Liquid | 155.13 ± 3.1
363.97 K, 11000 kPa, Liquid | 152.75 ± 3.1
363.98 K, 4500 kPa, Liquid | 164.66 ± 3.3
363.98 K, 9510 kPa, Liquid | 154.2 ± 3.1
364 K, 11540 kPa, Liquid | 152.34 ± 3.1
373.85 K, 2530 kPa, Liquid | 186.46 ± 3.7
373.85 K, 7050 kPa, Liquid | 164.54 ± 3.3
373.87 K, 7520 kPa, Liquid | 163.73 ± 3.3
373.89 K, 7980 kPa, Liquid | 162.86 ± 3.3
373.89 K, 9480 kPa, Liquid | 160.48 ± 3.2
373.9 K, 5520 kPa, Liquid | 169.02 ± 3.4
373.9 K, 6000 kPa, Liquid | 167.45 ± 3.4
373.9 K, 10000 kPa, Liquid | 159.78 ± 3.2
373.91 K, 9020 kPa, Liquid | 161.23 ± 3.3
373.92 K, 3010 kPa, Liquid | 182.39 ± 3.7
373.92 K, 4500 kPa, Liquid | 172.97 ± 3.5
373.92 K, 8520 kPa, Liquid | 162.1 ± 3.3
373.93 K, 4020 kPa, Liquid | 175.3 ± 3.5
373.94 K, 6520 kPa, Liquid | 166.64 ± 3.3
373.95 K, 5020 kPa, Liquid | 171.34 ± 3.4
373.95 K, 11010 kPa, Liquid | 158.15 ± 3.2
373.95 K, 11470 kPa, Liquid | 157.45 ± 3.1
373.95 K, 11990 kPa, Liquid | 157.1 ± 3.1
373.97 K, 3530 kPa, Liquid | 179.02 ± 3.6
373.98 K, 10490 kPa, Liquid | 158.44 ± 3.2
383.2 K, 2550 kPa, Liquid | 209.82 ± 4.2
383.21 K, 6010 kPa, Liquid | 173.96 ± 3.5
383.26 K, 6520 kPa, Liquid | 171.81 ± 3.4
383.3 K, 3960 kPa, Liquid | 188.32 ± 3.8
383.32 K, 4990 kPa, Liquid | 179.89 ± 3.6
383.34 K, 4500 kPa, Liquid | 183.72 ± 3.7
383.35 K, 3010 kPa, Liquid | 201.04 ± 4
383.42 K, 3490 kPa, Liquid | 193.84 ± 3.9
383.44 K, 5490 kPa, Liquid | 177.21 ± 3.5
383.92 K, 6990 kPa, Liquid | 170.65 ± 3.4
383.92 K, 9990 kPa, Liquid | 163.61 ± 3.3
383.93 K, 10490 kPa, Liquid | 161.7 ± 3.3
383.93 K, 12090 kPa, Liquid | 159.14 ± 3.2
383.94 K, 7980 kPa, Liquid | 168.55 ± 3.4
383.94 K, 9460 kPa, Liquid | 164.25 ± 3.3
383.94 K, 11010 kPa, Liquid | 160.71 ± 3.2
383.94 K, 11570 kPa, Liquid | 159.37 ± 3.2
383.95 K, 9030 kPa, Liquid | 164.95 ± 3.3
383.96 K, 7520 kPa, Liquid | 169.54 ± 3.4
383.97 K, 8470 kPa, Liquid | 166.75 ± 3.4
393.93 K, 4520 kPa, Liquid | 197.56 ± 4
393.95 K, 3560 kPa, Liquid | 222.96 ± 4.5
393.96 K, 3090 kPa, Liquid | 248.47 ± 5
393.99 K, 4980 kPa, Liquid | 192.79 ± 3.9
393.99 K, 7000 kPa, Liquid | 177.62 ± 3.5
393.99 K, 9000 kPa, Liquid | 170.47 ± 3.4
394 K, 8010 kPa, Liquid | 174.6 ± 3.5
394 K, 9500 kPa, Liquid | 169.6 ± 3.4
394.01 K, 7500 kPa, Liquid | 176.28 ± 3.5
394.02 K, 6000 kPa, Liquid | 183.49 ± 3.7
394.02 K, 12020 kPa, Liquid | 165.3 ± 3.3
394.03 K, 8510 kPa, Liquid | 173.38 ± 3.5
394.03 K, 11010 kPa, Liquid | 166.75 ± 3.4
394.04 K, 4060 kPa, Liquid | 208.37 ± 4.2
394.05 K, 6500 kPa, Liquid | 180.59 ± 3.6
394.05 K, 9990 kPa, Liquid | 168.03 ± 3.4
394.05 K, 11510 kPa, Liquid | 165.53 ± 3.3
394.06 K, 5490 kPa, Liquid | 187.33 ± 3.8
394.09 K, 10520 kPa, Liquid | 167.28 ± 3.4
403.41 K, 4080 kPa, Liquid | 248.65 ± 5
403.41 K, 4510 kPa, Liquid | 227.2 ± 4.5
403.43 K, 5070 kPa, Liquid | 209.76 ± 4.2
403.44 K, 5520 kPa, Liquid | 201.92 ± 4.1
403.49 K, 9990 kPa, Liquid | 173.15 ± 3.5
403.5 K, 8500 kPa, Liquid | 177.97 ± 3.5
403.51 K, 6500 kPa, Liquid | 192.5 ± 3.8
403.51 K, 8000 kPa, Liquid | 180.88 ± 3.6
403.52 K, 6010 kPa, Liquid | 195.93 ± 4
403.53 K, 6990 kPa, Liquid | 189.01 ± 3.8
403.53 K, 8990 kPa, Liquid | 175.94 ± 3.5
403.53 K, 10960 kPa, Liquid | 172.8 ± 3.5
403.53 K, 12000 kPa, Liquid | 170.65 ± 3.4
403.54 K, 10490 kPa, Liquid | 172.91 ± 3.5
403.55 K, 9510 kPa, Liquid | 174.54 ± 3.5
403.55 K, 11490 kPa, Liquid | 172.16 ± 3.4
403.58 K, 7550 kPa, Liquid | 184.77 ± 3.7
413.26 K, 4120 kPa, Fluid (supercritical or subcritical phases) | 593.02 ± 12
413.46 K, 4510 kPa, Fluid (supercritical or subcritical phases) | 315.55 ± 6.3
413.47 K, 5490 kPa, Fluid (supercritical or subcritical phases) | 230.16 ± 4.6
413.48 K, 6060 kPa, Fluid (supercritical or subcritical phases) | 211.86 ± 4.2
413.5 K, 4980 kPa, Fluid (supercritical or subcritical phases) | 256.44 ± 5.1
413.51 K, 6500 kPa, Fluid (supercritical or subcritical phases) | 205.29 ± 4.1
413.51 K, 7000 kPa, Fluid (supercritical or subcritical phases) | 197.5 ± 4
413.52 K, 11000 kPa, Fluid (supercritical or subcritical phases) | 171.93 ± 3.4
413.53 K, 7980 kPa, Fluid (supercritical or subcritical phases) | 188.9 ± 3.8
413.53 K, 8490 kPa, Fluid (supercritical or subcritical phases) | 186.05 ± 3.7
413.53 K, 10480 kPa, Fluid (supercritical or subcritical phases) | 174.77 ± 3.5
413.54 K, 7520 kPa, Fluid (supercritical or subcritical phases) | 191.28 ± 3.8
413.54 K, 10010 kPa, Fluid (supercritical or subcritical phases) | 176.92 ± 3.5
413.54 K, 11510 kPa, Fluid (supercritical or subcritical phases) | 170.01 ± 3.4
413.54 K, 11940 kPa, Fluid (supercritical or subcritical phases) | 169.43 ± 3.4
413.55 K, 8990 kPa, Fluid (supercritical or subcritical phases) | 180.93 ± 3.6
413.56 K, 9510 kPa, Fluid (supercritical or subcritical phases) | 178.9 ± 3.6
